Like-named read-outs stand apart in the source and are kept apart here.
Columns and labels:
[1] = Microsomal stability in vitro assay; format: in vitro ADME; conditions: rat liver microsomes 1 mg/mL, 4 μM compound, 2 mM NADPH
Description: Pooled rat liver microsomes (BD Biosciences, #452701) were preincubated with test compounds at 37.5° C. for 5 min in the absence of NADPH. The reaction was initiated by addition of NADPH and incubated under the same conditions. The final incubation concentrations were 4 μM test compound, 2 mM NADPH, and 1 mg/mL (total protein) liver microsomes in phosphate-buffered saline (PBS) at pH 7.4. One aliquot (100 μL) of the incubation mixture was withdrawn at 15 min time points and combined immediately with 100 μL of ACN/MeOH. After mixing, the sample was centrifuged at approximately 13000 rpm for 12 min. The supernatant was filtered and transferred into an autosampler vial and the amount of test compound was quantified using a Shimadzu LCMS 2010EV mass spectrometer. The change of the AUC (area under the curve) of the parent compound as a function of time was used as a measure of microsomal stability. Test compounds were run in duplicate with a positive control.

[2] = target: rat mGlu2 receptor (Rattus norvegicus (Rat), UniProt P31421); experiment: mGlu2 in vitro GIRK thallium flux assay; format: cell-based; conditions: NAM, EC80 glutamate, HEK-293 GIRK cells
rat mGlu2 receptor, sequence (P31421 19-872): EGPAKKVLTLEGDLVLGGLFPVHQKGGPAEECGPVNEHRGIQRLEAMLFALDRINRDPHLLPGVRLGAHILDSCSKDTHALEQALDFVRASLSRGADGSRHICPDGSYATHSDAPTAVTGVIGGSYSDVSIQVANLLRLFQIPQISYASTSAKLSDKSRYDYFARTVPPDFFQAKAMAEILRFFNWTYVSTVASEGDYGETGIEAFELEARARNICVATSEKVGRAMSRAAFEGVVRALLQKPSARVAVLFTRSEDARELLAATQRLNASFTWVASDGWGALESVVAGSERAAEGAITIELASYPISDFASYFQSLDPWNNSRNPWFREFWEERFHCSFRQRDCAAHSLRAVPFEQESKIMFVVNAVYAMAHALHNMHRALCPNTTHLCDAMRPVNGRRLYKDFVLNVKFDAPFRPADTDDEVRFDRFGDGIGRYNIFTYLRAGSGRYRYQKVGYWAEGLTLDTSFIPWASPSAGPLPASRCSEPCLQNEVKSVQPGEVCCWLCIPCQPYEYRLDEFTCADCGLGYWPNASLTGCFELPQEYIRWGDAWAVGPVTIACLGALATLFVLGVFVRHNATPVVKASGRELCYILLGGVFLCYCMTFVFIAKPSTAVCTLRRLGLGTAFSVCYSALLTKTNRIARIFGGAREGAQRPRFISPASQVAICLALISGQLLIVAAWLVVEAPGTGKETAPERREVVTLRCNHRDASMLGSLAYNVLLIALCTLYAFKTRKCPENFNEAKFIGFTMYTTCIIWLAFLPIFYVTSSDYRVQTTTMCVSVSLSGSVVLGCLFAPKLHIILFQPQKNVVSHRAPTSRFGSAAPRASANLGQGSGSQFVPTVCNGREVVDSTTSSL
How it was run: (§1)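 Cells expressing rat mGlu2 or mGlu3 with GIRK, plated overnight at 37 °C. Test compounds (0.3% DMSO, 10-point 1:3 series) preincubated 2.5 or 60 min, then thallium buffer plus EC80 glutamate added. Fluorescence slope 5–15 s after addition, normalised to vehicle and maximal agonist, fitted by four-parameter logistic.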

[3] = Plasma stability in vitro assay; format: in vitro ADME; conditions: rat plasma, 100 μM, 37.5° C.
Description: A 20 μL aliquot of a 10 mM solution in DMSO of the test compound was added to 2.0 mL of heparinized rat plasma (Lampire, P1-150N) to obtain a 100 μM final solution. The mixture was incubated for 1 h at 37.5° C. Aliquots of 100 μL were taken at 15 min intervals and diluted with 100 μL of MeOH/ACN. After mixing, the sample was centrifuged at approximately 13000 rpm for 12 min. The supernatant was filtered and transferred into an autosampler vial and the amount of test compound was quantified using the Shimadzu LCMS-2010EV system. The change of the AUC of the parent compound in function of time was used as a measure of plasma stability.

[4] = PK: brain and plasma levels collected after the FST; format: in vivo, rat; conditions: Wistar
Description: After the habituation swim and 24 hours prior to the test swim, rats were administered one of three doses of a mGlu2/3 NAM, with doses and pretreatment time based on maximal brain penetration as determined by PK studies for each compound. Blood and brain tissue were collected immediately after the FST and the PK properties of each compound were analyzed together with FST behavior. The modified forced swim test was carried out as described previously in Cryan et al., 2003. Briefly, rats were taken from the vivarium and immediately placed individually for 15 min in Pyrex cylinders (21×46 cm; Fisher Scientific, Tustin, Calif.), which were filled with water to a depth of 30 cm. The testing room was bright, and two bright (60-watt) lamps provided extra illumination above the cylinders. The rats were removed 15 min later, dried, and placed in their home cage. Twenty-four hours after their first exposure, the animals were again placed in the swim apparatus for 5 min, and behaviors were monitored from above by video camera for subsequent analysis. The rater of the behavioral patterns was blind with respect to the experimental conditions being scored. A time sampling technique was employed whereby the predominant behavior in each 5-sec period of the 300-sec test was recorded. Climbing behavior consisted of upward-directed movements of the forepaws along the side of the swim chamber. Swimming behavior was defined as movement (usually horizontal) throughout the swim chamber, which also included crossing into another quadrant. Immobility was assigned when no additional activity was observed other than that required to keep the rat's head above water.

[5] = target: rat mGlu3 receptor (Rattus norvegicus (Rat), UniProt P31422); experiment: mGlu3 in vitro GIRK thallium flux assay; format: cell-based; conditions: NAM; 2.5 min compound incubation; EC80 glutamate; HEK-293 GIRK cells
rat mGlu3 receptor, sequence (P31422 23-879): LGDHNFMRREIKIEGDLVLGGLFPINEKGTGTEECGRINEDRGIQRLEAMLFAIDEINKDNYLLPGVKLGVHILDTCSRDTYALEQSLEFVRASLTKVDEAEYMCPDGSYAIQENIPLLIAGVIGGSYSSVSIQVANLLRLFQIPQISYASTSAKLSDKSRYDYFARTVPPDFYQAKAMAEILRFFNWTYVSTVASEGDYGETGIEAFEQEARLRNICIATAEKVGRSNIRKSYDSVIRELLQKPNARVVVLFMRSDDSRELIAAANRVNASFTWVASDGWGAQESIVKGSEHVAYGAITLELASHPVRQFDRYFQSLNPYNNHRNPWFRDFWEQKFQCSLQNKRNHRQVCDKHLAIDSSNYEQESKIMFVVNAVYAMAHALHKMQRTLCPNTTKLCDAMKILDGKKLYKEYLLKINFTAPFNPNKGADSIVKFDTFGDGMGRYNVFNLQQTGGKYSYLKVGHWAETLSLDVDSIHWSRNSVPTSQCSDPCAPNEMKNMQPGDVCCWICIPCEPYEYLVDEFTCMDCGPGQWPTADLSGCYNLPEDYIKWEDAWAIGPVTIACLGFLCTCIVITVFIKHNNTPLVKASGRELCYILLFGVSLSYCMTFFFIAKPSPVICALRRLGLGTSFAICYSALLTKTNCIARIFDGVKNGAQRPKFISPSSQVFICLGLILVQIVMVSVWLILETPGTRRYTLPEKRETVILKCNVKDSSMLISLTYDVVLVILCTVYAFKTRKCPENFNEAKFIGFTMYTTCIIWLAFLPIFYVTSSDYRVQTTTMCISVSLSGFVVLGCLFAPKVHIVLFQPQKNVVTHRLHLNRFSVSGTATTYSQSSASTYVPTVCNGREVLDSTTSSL
How it was run: as §1

[6] = system: Male Wistar rats; experiment: Forced Swim Test (FST); format: in vivo; conditions: rat; immobility and swimming; FIG. 1
Description: Male Wistar rats (Charles River, Hollister, Calif.), weighing 175-225 g (Charles River, Portage, Ind.) used for the forced swim test study were housed in pairs with food and water available ad libitum, except during testing, in a temperature and humidity controlled vivarium (21° C.). Rats were maintained on a 12-hour reverse light-dark cycle with lights on at 6 pm. All experimental procedures occurred during the dark cycle, were approved by the Institutional Animal Care and Use Committee of the Scripps Research Institute, and were in accordance with the Association for the Assessment and Accreditation of Laboratory Animal Care (AAALAC) guidelines. […]
After the habituation swim and 24 hours prior to the test swim, rats were administered one of three doses of a mGlu2/3 NAM, with doses and pretreatment time based on maximal brain penetration as determined by PK studies for each compound. Blood and brain tissue were collected immediately after the FST and the PK properties of each compound were analyzed together with FST behavior. […] Twenty-four hours after their first exposure, the animals were again placed in the swim apparatus for 5 min, and behaviors were monitored from above by video camera for subsequent analysis. The rater of the behavioral patterns was blind with respect to the experimental conditions being scored. […]

[7] = 2.5 min compound incubation, read-out: mGlu2 EC50 (μM) (2.5 min)
[8] = mGlu2 EC50 (μM) (60 min), 60 min compound incubation
[9] = rat brain tissue, read-out: Brain
[10] = read-out: mGlu2 EC50 (μM) (60 min), 60 min compound incubation

Row | Compound | Microsomal Stability, Percent Remaining @ 1 hour [1] [%] | EC50 [2, 7] [µM] | EC50 [2, 8] [µM] | Plasma Stability, Percent Remaining @ 1 hour [3] [%] | concentration at 24 h [4, 9] [nM] | concentration at 24 h ([4]; rat plasma, read-out: Plasma) [nM] | EC50 [5] [µM] | EC50 [2, 10] [µM] | antidepressant activity in the Forced Swim Test [6]
1 | O=C(O)c1cc(F)cc(-c2cccc(-c3nsc(-c4ccoc4)n3)c2)c1 [Example 43, 5-Fluoro-3′-(5-(furan-3-yl)-1,2,4-thiadiazol-3-yl)biphenyl-3-carboxylic Acid] | 66 | 0.17 | 0.11 | 95 | 210 ± 40 | 4690 ± 780 | 3.43 | – | –
2 | O=C(O)c1cccc(-c2cccc(-c3cc(-c4ccccc4)on3)c2)c1 [Example 49, 3′-(5-Phenylisoxazol-3-yl)-[1,1′-biphenyl]-3-carboxylic Acid] | – | > 10 | > 30 | – | 500 ± 50 | 19200 ± 2100 | > 10 | – | –
3 | O=C(O)c1cc(-c2cccc(-c3nc(-c4ccc(C(F)(F)F)nc4)cc(C(F)(F)F)n3)c2)ccc1F [Example 73, 4-Fluoro-3′-(4-(trifluoromethyl)-6-(6-(trifluoromethyl)pyridin-3-yl)pyrimidin-2-yl)biphenyl-3-carboxylic Acid] | – | 0.82 | – | – | 140 ± 90 | 9010 ± 2230 | 1.18 | 0.17 | –
4 | O=C(O)c1ccc(F)c(-c2cccc(-c3nc(-c4ccc(C(F)(F)F)nc4)cc(C(F)(F)F)n3)c2)c1 [Example 79, 6-Fluoro-3′-(4-(trifluoromethyl)-6-(6-(trifluoromethyl)pyridin-3-yl)pyrimidin-2-yl)biphenyl-3-carboxylic Acid] | 82 | 0.83 | – | 86 | – | – | 0.89 | 0.09 | –
5 | O=C(O)c1cc(-c2cccc(-c3nc(-c4ccccc4)cc(C(F)(F)F)n3)c2)ccc1F [Example 86, 4-Fluoro-3′-(4-phenyl-6-(trifluoromethyl)pyrimidin-2-yl)biphenyl-3-carboxylic Acid] | 100 | 0.8 | – | 100 | – | – | 0.92 | 0.04 | –
6 | COc1ccc(-c2cc(C(F)(F)F)nc(-c3cccc(-c4ccc(F)c(C(=O)O)c4)c3)n2)cc1 [Example 87, 4-Fluoro-3′-(4-(4-methoxyphenyl)-6-(trifluoromethyl)pyrimidin-2-yl)biphenyl-3-carboxylic Acid] | 92 | 1.07 | – | 97 | – | – | 1 | 0.06 | –
7 | O=C(O)c1cc(F)cc(-c2cccc(-c3nc(-c4ccco4)cc(C(F)(F)F)n3)c2)c1 [Example 89, 5-Fluoro-3′-(4-(furan-2-yl)-6-(trifluoromethyl)pyrimidin-2-yl)biphenyl-3-carboxylic Acid] | 82 | 1.24 | – | 100 | – | – | 2.25 | 0.14 | –
8 | O=C(O)c1cc(-c2cccc(-c3nc(-c4ccoc4)cc(C(F)(F)F)n3)c2)ccc1F [Example 94, 4-Fluoro-3′-(4-(furan-3-yl)-6-(trifluoromethyl)pyrimidin-2-yl)biphenyl-3-carboxylic Acid] | – | – | – | – | 490 ± 60 | 15900 ± 950 | 0.28 | 0.14 | –
9 | O=C(O)c1ccc(F)c(-c2cccc(-c3nc(-c4ccoc4)cc(C(F)(F)F)n3)c2)c1 [Example 114, 6-Fluoro-3′-(4-(furan-3-yl)-6-(trifluoromethyl)pyrimidin-2-yl)biphenyl-3-carboxylic Acid] | 66 | 0.4 | – | 93 | – | – | 1.36 | – | –
10 | O=C(O)c1cc(-c2cccc(-c3nc(-c4ccsc4)cc(C(F)(F)F)n3)c2)ccc1F [Example 122, 4-Fluoro-3′-(4-(thiophen-3-yl)-6-(trifluoromethyl)pyrimidin-2-yl)-[1,1′-biphenyl]-3-carboxylic Acid] | 83 | – | – | 83 | – | – | 0.53 | 0.07 | –
11 | Cc1cc2c(cc1C(F)(F)F)NC(=O)CC(c1cccc(Sc3ncccn3)c1)=N2 [Example 136, 7-Methyl-4-(3-(pyrimidin-2-ylthio)phenyl)-8-(trifluoromethyl)-1H-benzo[b][1,4]diazepin-2(3H)-one] | 90 | 0.88 | – | 99 | – | – | 0.81 | 0.04 | –
12 | Cc1cc2c(cc1C(F)(F)F)NC(=O)CC(c1cccc(S(=O)(=O)c3ncccn3)c1)=N2 [Example 137, 7-Methyl-4-(3-(pyrimidin-2-ylsulfonyl)phenyl)-8-(trifluoromethyl)-1H-benzo[b][1,4]diazepin-2(3H)-one] | 68 | 0.45 | – | 66 | – | – | 0.3 | 0.06 | –
13 | O=C1CC(c2cccc(-c3cccnc3)c2)=Nc2ccc(Br)cc2N1 [Example 179, 8-Bromo-4-(3-(pyridin-3-yl)phenyl)-1,3-dihydro-2H-benzo[b][1,4]diazepin-2-one] | 30 | 2.74 | – | 100 | – | – | 1.37 | 0.02 | –
14 | N#Cc1cc(C2=Nc3ccc(Br)cc3NC(=O)C2)ccn1 [Example 182, 4-(8-Bromo-2-oxo-2,3-dihydro-1H-benzo[b][1,4]diazepin-4-yl)picolinonitrile] | – | 0.04 | – | – | 280 ± 100 | 160 ± 30 | 0.04 | 0.04 | decreasing immobility and increasing swimming
15 | N#Cc1cc(C2=Nc3ccc(C(F)(F)F)cc3NC(=O)C2)ccn1 [Example 184, 4-(2-Oxo-8-(trifluoromethyl)-2,3-dihydro-H-benzo[b][1,4]diazepin-4-yl)picolinonitrile] | 97 | 0.49 | – | 100 | – | – | 0.41 | 0.07 | –
16 | O=C1CC(c2ccnc(Br)c2)=Nc2ccc(C(F)(F)F)cc2N1 [Example 191, 4-(2-Bromopyridin-4-yl)-8-(trifluoromethyl)-1,3-dihydro-2H-benzo[b][1,4]diazepin-2-one] | – | 0.25 | – | – | 1430 ± 460 | 280 ± 60 | 0.18 | 0.08 | decreasing immobility and increasing swimming
